Values quoted from earlier work in patent US20180110792A1, “COMPOSITIONS AND METHODS FOR INHIBITING GLYCATION REACTIONS” (Access Business Group International LLC, priority 2016, published 2018).

Details: human, in vivo

## N=C(N)NN [aminoguanadine]
  adverse effects in clinical trials: demonstrated adverse effects in clinical trials
